Common to all, as to format: physicochemical
Data set [1] is described as follows: Tapped density and bulk density, powder tester (Japanese Pharmacopoeia Method 3). The conditions noted are these: 100 mL cylindrical container; for Tapped density: 100 times per 3 minutes. The method, then: Regarding the anhydrous crystal obtained in Production Example 1 and the monohydrous crystal as a raw material, the bulk density and the tapped density were measured with a powder tester type A.B.D-72 (TSUTSUI SCIENTIFIC INSTRUMENTS Co., Ltd.) in accordance with of Method 3 (measuring vessel) of Determination of Bulk Density and Method 3 of Determination of Tapped Density mentioned in the Japanese Pharmacopoeia, Seventeenth Edition. Specifically, regarding the bulk density, an excess of a sample was freely fallen through the apparatus into a cylindrical container (volume of 100 mL, inner diameter of 5.05 cm) until a container overflowed. Then, the edge of a spatula standing vertically in contact with the top surface of the container was moved smoothly, and an excess of the sample was carefully slashed off from the top surface of the container. The bulk density was calculated by dividing the mass (g) of the sample in the container by a volume of 100 mL. The tapped density was, specifically, measured as a density when the sample was filled in a cylindrical container (volume of 100 mL, inner diameter of 5.05 cm) in the same manner as for the bulk density measurement and was fallen using the apparatus at a rate of 100 times per 3 minutes.

The nature of data set [2]: BET specific surface area by nitrogen adsorption method. The following applies: BET multipoint method, nitrogen gas. How it is done: The specific surface area was measured by a nitrogen adsorption method using Flow sorb II 2300 (Shimadzu Corporation). Specifically, the BET specific surface area was measured by a BET multipoint method by nitrogen adsorption under the following conditions: • Sample amount: 0.2 g • Deaeration condition: 150° C. (anhydrous), 80° C. (monohydrous) • Adsorption gas: nitrogen gas

A short description of data set [3]: Observation of particle shape by scanning electron microscopy. The following applies: SEM micrograph. From the text: Micrographs of particles of the anhydrous crystal of the present invention and the monohydrous crystal were taken using scanning electron microscopy (SEM) (Hitachi, Ltd., S-3200N).
The nature of data set [4]: Long diameter, short diameter and aspect ratio by particle shape image analyzer PITA-3. The following applies: for Aspect ratio (d50): long diameter (d50)/short diameter (d50). How it is done: Regarding the anhydrous crystal obtained in Production Example 1 and the monohydrous crystal as a raw material, the long diameter and the short diameter were measured using a particle shape image analyzer PITA-3 (SEISHIN ENTERPRISE Co., Ltd.), and the aspect ratio was calculated.
The longest diameter in the particle was regarded as the long diameter, and the shortest diameter in the particle was regarded as the short diameter. The aspect ratio was calculated by the following formula: Aspect ratio=long diameter/short diameter
Specifically, measurement was performed under the following conditions:
Carrier liquid: n-hexane+lecithin
Dispersion condition: ultrasonic wave for 5 minutes
Flow rate of first carrier liquid: 500.00 μL/second
Flow rate of second carrier liquid: 500.00 μL/second
Flow rate of sample dispersion liquid: 0.42 μL/second
Observation magnification: 10 times
Light control filter: None
Number of particles observed: 6,992 (anhydrous crystal) or 9,628 (monohydrous crystal)

Data set [5] is described as follows: Measurement of solubility in distilled water (HPLC). The conditions noted are these: room temperature, shaken 1 hour, saturated solution. The method, then:
After 10 mL of distilled water was put into 0.5 g of the anhydrous crystal obtained in Production Example 1 or the monohydrous crystal as a raw material, the solution was horizontally shaken with a shaker (manufactured by TAITEC CORPORATION, STRONG SHAKER SR-2DS) at room temperature and at a shaking speed of 150 strokes/min and a shaking width of 4 cm/stroke for 1 hour. Thereafter, a precipitate was confirmed to be remained, and centrifugation (3,000 rpm×10 minutes) was performed to take a supernatant, followed by filtration using a membrane filter to obtain a supernatant of a saturated solution. 2 mL of the supernatant of the saturated solution was weighed in a 20 mL volumetric flask to make a constant volume with a mobile phase, and this was used as a sample solution, followed by measurement of solubility under the following HPLC conditions: • Analyzer: HPLC ACQUITY Arc system (manufactured by Waters K. K.) • Mobile phase: acetonitrile/water/acetic acid=50/49.5/0.5, v/v • Detector: ultraviolet spectrophotometer λ=276 nm (1 Au/V) • Column: Nucleosil 5 C18 (4.6 φ×250 mm) (manufactured by MACHEREY-NAGEL GmbH & Co. KG) • Column temperature: 50° C. • Flow rate: 1.075 ml/min • Injection volume: 20 μL • Measurement time: 40 minutes

Data set [6] can be described thus: Angle of repose (Japanese Pharmacopoeia). The following applies: compared with the monohydrous crystal. How it is done:
Regarding the particles of the anhydrous crystal obtained in Production Example 1 and the monohydrous crystal, the angle of repose was measured in accordance with Angle of repose mentioned in the Japanese Pharmacopoeia, Seventeenth Edition.

The term solubility denotes the concentration that dissolves in the medium under given conditions. Read a high solubility as a readily soluble substance. What is called Solubility is the concentration that dissolves in the medium under given conditions.

SMILES strings stand for the structures.

In data set [1], `CCS(=O)(=O)Nc1ncc(C(F)(F)F)cc1NC(=O)C1CCCCC1.[Na]` [Monohydrous crystal, monosodium N-(2-ethylsulfonylamino-5-trifluoromethyl-3-pyridyl)cyclohexane carboxamide] displayed a Bulk density of 0.18 g/mL and a Tapped density of 0.207 g/mL. For the same compound, in data set [2], the Specific surface area is 4.36 m^2/g. Besides, the Particle shape result in data set [3] is reported as “needle like”. In data set [4], the “Long diameter (d50)” value turned out to be 15.80 μm, the “Short diameter (d50)” value came to 3.19 μm and the “Aspect ratio (d50)” value worked out at 4.95. The compound also yielded a solubility at 1 h in data set [5] (water, thermodynamic from solid) of 160 µg/mL.

In data set [1], `CCS(=O)(=O)Nc1ncc(C(F)(F)F)cc1NC(=O)C1CCCCC1.[Na]` [Anhydrous crystal, monosodium N-(2-ethylsulfonylamino-5-trifluoromethyl-3-pyridyl)cyclohexane carboxamide] had a Bulk density of 0.289 g/mL and a Tapped density of 0.367 g/mL. This compound came in with a Specific surface area in data set [2] of 3.38 m^2/g. For the same compound, the Particle shape result in data set [3] is recorded as “massive”. In data set [4], the “Long diameter (d50)” value is listed as 6.09 μm, the “Short diameter (d50)” value is on record as 3.34 μm and the “Aspect ratio (d50)” value came to 1.82. Also, in data set [5], the Solubility came to 204 µg/mL. Moreover, in data set [6], the Angle of repose entry was “smaller than the angle of repose of the particle of the monohydrous crystal”.
